Data on 3 compounds can be found in ChEMBL document CHEMBL1833797, “Microwave assisted synthesis and antimicrobial evaluation of new fused pyran derivatives bearing 2-morpholinoquinoline nucleus” (2011).

For one assay, the system named is Aspergillus fumigatus. As to the kind of experiment: Antifungal activity against Aspergillus fumigatus MTCC 3008 for 48 hrs by microdilution method. In kind it is functional. Particulars: MTCC 3008, 48 h. (In general: Dilution methods test growth across graded concentrations, often in twofold steps.)
The test system of a further assay is Clostridium tetani. As to the kind of experiment: Antimicrobial activity against Clostridium tetani MTCC 449 for 24 hrs by microdilution method. Type of assay: functional. Particulars: MTCC 449, 24 h.
For another assay, the system named is Escherichia coli. As to the kind of experiment: Antimicrobial activity against Escherichia coli MTCC 443 for 24 hrs by microdilution method. Type of assay: functional. Particulars: MTCC 443, 24 h.
A further assay relates to Vibrio cholerae. As to the kind of experiment: Antimicrobial activity against Vibrio cholerae MTCC 3906 for 24 hrs by microdilution method. Type of assay: functional. The conditions noted are these: MTCC 3906, 24 h.
Another assay has as its system Streptococcus pneumoniae. As to the kind of experiment: Antimicrobial activity against Streptococcus pneumoniae MTCC 1936 for 24 hrs by microdilution method. In kind it is functional. Particulars: MTCC 1936, 24 h.
The test system of another assay is Candida albicans. The assay can be described thus: Antifungal activity against Candida albicans MTCC 227 for 48 hrs by microdilution method. In kind it is functional. The conditions noted are these: MTCC 227, 48 h.
For another assay, the system named is Salmonella typhi. As to the kind of experiment: Antimicrobial activity against Salmonella typhi MTCC 98 for 24 hrs by microdilution method. In kind it is functional, Salmonella enterica subsp. enterica serovar Typhi. Particulars: Salmonella enterica, MTCC 98, 24 h.
In the next assay the test system is Bacillus subtilis. The assay can be described thus: Antimicrobial activity against Bacillus subtilis MTCC 441 for 24 hrs by microdilution method. Type of assay: functional. Particulars: MTCC 441, 24 h.

Values after ≈ are worked out from the molar mass of the structure shown. Where only a bound is given, the exact number is not on record here.

In general, MIC refers to the lowest concentration found to suppress growth. On to `Cc1ccc2nc(N3CCOCC3)c(C3C(C#N)=C(N)Oc4[nH]nc(C)c43)cc2c1` (centres undefined), for which the MIC stood at 1000 µg/mL (≈ 2480 µM) in the assay on Aspergillus fumigatus; 250 µg/mL (≈ 621 µM) against Clostridium tetani; 200 µg/mL (≈ 497 µM) in the assay with Escherichia coli; 250 µg/mL (≈ 621 µM) with Vibrio cholerae; 200 µg/mL (≈ 497 µM) in the assay with Streptococcus pneumoniae; 1000 µg/mL (≈ 2480 µM) in the assay with Candida albicans. In addition, the MIC in the assay on Salmonella typhi was found to be 250 µg/mL (≈ 621 µM); in the assay with Bacillus subtilis it was 200 µg/mL (≈ 497 µM).

In the case of `Cc1ccc2nc(N3CCOCC3)c(C3C(C#N)=C(N)Oc4c3ccc3ccccc43)cc2c1` (centres undefined), the MIC was 500 µg/mL (≈ 1110 µM) against Aspergillus fumigatus; 500 µg/mL (≈ 1110 µM) in the assay with Clostridium tetani; 200 µg/mL (≈ 446 µM) in the assay with Escherichia coli; 12.5 µg/mL (≈ 27.9 µM) in the assay with Vibrio cholerae; 500 µg/mL (≈ 1110 µM) against Streptococcus pneumoniae; greater than 1000 µg/mL in the assay with Candida albicans. Moreover, the MIC against Salmonella typhi was determined as 250 µg/mL (≈ 557 µM); against Bacillus subtilis, 500 µg/mL (≈ 1110 µM).

As for `COc1ccc2nc(N3CCOCC3)c(C3C(C#N)=C(N)Oc4c3c(=O)oc3ccccc43)cc2c1` (centres undefined), the MIC is 1000 µg/mL (≈ 2070 µM) against Aspergillus fumigatus; 500 µg/mL (≈ 1040 µM) with Clostridium tetani; 500 µg/mL (≈ 1040 µM) with Escherichia coli; 500 µg/mL (≈ 1040 µM) against Vibrio cholerae; 200 µg/mL (≈ 415 µM) against Streptococcus pneumoniae; 200 µg/mL (≈ 415 µM) in the assay on Candida albicans. The MIC in the assay on Salmonella typhi turned out to be 500 µg/mL (≈ 1040 µM); against Bacillus subtilis it was 200 µg/mL (≈ 415 µM).
